Test results: patent US6737383B1, “Herbicidal oxadiazolidines” (priority 1999, dated 2004)

How the values were obtained:
surinam grass = assay: Test B pre/postemergence surinam grass; format: in vivo, Brachiaria decumbens
How it was run: (§1)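 Response is a visual 0-to-10 score relative to untreated plants, where 0 means no effect and 10 means complete control, taken twelve to sixteen days after application. Treatments went onto soil at planting and onto foliage of 1- to 4-leaf plants, using a surfactant-containing non-phytotoxic solvent.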

cocklebur = assay: Test B pre/postemergence cocklebur; format: in vivo, Xanthium strumarium
How it was run: as §1

corn = assay: Test B pre/postemergence corn; format: in vivo, Zea mays
How it was run: as §1

crabgrass = assay: Test B pre/postemergence crabgrass; format: in vivo, Digitaria sanguinalis
How it was run: as §1

giant foxtail = assay: Test B pre/postemergence giant foxtail; format: in vivo, Setaria faberii
How it was run: as §1

morningglory = assay: Test B pre/postemergence morningglory; format: in vivo, Ipomoea hederacea
How it was run: as §1

pigweed = assay: Test B pre/postemergence pigweed; format: in vivo, Amaranthus retroflexus
How it was run: as §1

rape = assay: Test B pre/postemergence rape; format: in vivo, Brassica napus
How it was run: as §1

soybean = assay: Test B pre/postemergence soybean; format: in vivo, Glycine max
How it was run: as §1

sugar beet = assay: Test B pre/postemergence sugar beet; format: in vivo, Beta vulgaris
How it was run: as §1

wild oat = assay: Test B pre/postemergence wild oat; format: in vivo, Avena fatua
How it was run: as §1

purple nutsedge = assay: Test B pre/postemergence purple nutsedge; format: in vivo, Cyperus rotundus
How it was run: as §1

rice = assay: Test B flood test rice; format: in vivo, Oryza sativa
How it was run: (§2)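 Flood test on plants grown to the 2-leaf stage; treated plants kept in greenhouse twelve to sixteen days, then visually rated against controls on a 0 (no effect) to 10 (complete control) scale.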

smallflower flatsedge = assay: Test B flood test smallflower flatsedge; format: in vivo, Cyperus difformis
How it was run: as §2

duck salad = assay: Test B flood test duck salad; format: in vivo, Heteranthera limosa
How it was run: as §2

bamyardgrass = assay: Test B flood test barnyardgrass; format: in vivo, Echinochloa crus-galli
How it was run: as §2

[1] = Postemergence, Rate 62 g/ha, scale of 0 to 10, 0 is no effect, 10 is complete control
[2] = Postemergence, Rate 125 g/ha, scale 0 to 10, 0 is no effect, 10 is complete control
[3] = Postemergence, Rate 500 g/ha, scale 0 to 10, 0 is no effect, 10 is complete control
[4] = Preemergence, Rate 62 g/ha, scale 0 to 10 (0 no effect, 10 complete control)
[5] = Preemergence, Rate 125 g/ha, scale 0 to 10, 0 is no effect, 10 is complete control
[6] = Preemergence, Rate 500 g/ha, scale of 0 to 10 where 0 is no effect and 10 is complete control
[7] = Rate 250 g/ha, Postemergence, scale of 0 to 10 where 0 is no effect and 10 is complete control
[8] = Rate 62 g/ha, flood test species, Pre-emergence, visual evaluation after twelve to sixteen days
[9] = Rate 125 g/ha, under heading Pre-emergence, flood test species, visual evaluation after twelve to sixteen days
[10] = Rate 250 g/ha, Pre-emergence (flood test species), scale 0 to 10, 0 is no effect, 10 is complete control
[11] = Rate 500 g/ha, Pre-emergence section of Table B, 0 to 10 scale (0 no effect, 10 complete control)

Structure (SMILES): CC(C)N(C(=O)n1oc(=O)n(CC2CCC2)c1=O)c1ccc(Cl)cc1 [Compound 550]
- B. signalgrass plant response rating (surinam grass; [1]): 0
- B. signalgrass plant response rating (surinam grass; [2]): 0
- Plant response rating, B. signalgrass (surinam grass; [3]): 2
- B. signalgrass plant response rating (surinam grass; [4]): 6
- B. signalgrass plant response rating (surinam grass; [5]): 9
- B. signalgrass plant response rating (0 to 10 scale, 0 is no effect, 10 is complete control) (surinam grass; Preemergence, Rate 250 g/ha): 9
- B. signalgrass plant response rating (surinam grass; [6]): 10
- Plant response rating, B. signalgrass (surinam grass; [7]): 2
- Cocklebur plant response rating (cocklebur; [1]): 0
- Cocklebur plant response rating (cocklebur; [2]): 0
- Plant response rating, Cocklebur (cocklebur; [3]): 2
- Cocklebur plant response rating (cocklebur; [4]): 0
- Cocklebur plant response rating (cocklebur; [5]): 0
- Cocklebur plant response rating (0 to 10 scale) (cocklebur; Preemergence, Rate 250 g/ha): 0
- Cocklebur plant response rating (cocklebur; [6]): 0
- Plant response rating, Cocklebur (cocklebur; [7]): 1
- Corn plant response rating (corn; [1]): 0
- Corn plant response rating (corn; [2]): 0
- Plant response rating, Corn (corn; [3]): 2
- Corn plant response rating (corn; [4]): 0
- Corn plant response rating (corn; [5]): 0
- Corn plant response rating (0 to 10 scale) (corn; Preemergence, Rate 250 g/ha): 0
- Corn plant response rating (corn; [6]): 0
- Plant response rating, Corn (corn; [7]): 0
- Crabgrass plant response rating (crabgrass; [2]): 7
- Crabgrass plant response rating (crabgrass; [4]): 4
- Crabgrass plant response rating (crabgrass; [5]): 10
- Crabgrass plant response rating (0 to 10 scale) (crabgrass; Preemergence, Rate 250 g/ha): 10
- Crabgrass plant response rating (crabgrass; [6]): 10
- Plant response rating, Crabgrass (crabgrass; [7]): 10
- Giant foxtail plant response rating (giant foxtail; [1]): 2
- Giant foxtail plant response rating (giant foxtail; [2]): 6
- Plant response rating, Giant foxtail (giant foxtail; [3]): 9
- Giant foxtail plant response rating (giant foxtail; [4]): 7
- Giant foxtail plant response rating (giant foxtail; [5]): 9
- Giant foxtail plant response rating (0 to 10 scale) (giant foxtail; Preemergence, Rate 250 g/ha): 10
- Giant foxtail plant response rating (giant foxtail; [6]): 10
- Plant response rating, Giant foxtail (giant foxtail; [7]): 9
- Morningglory plant response rating (morningglory; [1]): 1
- Morningglory plant response rating (morningglory; [2]): 1
- Plant response rating, Morningglory (morningglory; [3]): 8
- Morningglory plant response rating (morningglory; [4]): 0
- Morningglory plant response rating (morningglory; [5]): 0
- Morningglory plant response rating (0 to 10 scale) (morningglory; Preemergence, Rate 250 g/ha): 0
- Morningglory plant response rating (morningglory; [6]): 0
- Plant response rating, Morningglory (morningglory; [7]): 9
- Redroot pigweed plant response rating (pigweed; [1]): 0
- Redroot pigweed plant response rating (pigweed; [2]): 0
- Plant response rating, Redroot pigweed (pigweed; [3]): 0
- Redroot pigweed plant response rating (pigweed; [4]): 7
- Redroot pigweed plant response rating (pigweed; [5]): 9
- Redroot pigweed plant response rating (0 to 10 scale) (pigweed; Preemergence, Rate 250 g/ha): 9
- Redroot pigweed plant response rating (pigweed; [6]): 10
- Plant response rating, Redroot pigweed (pigweed; [7]): 0
- Rape plant response rating (rape; [1]): 0
- Rape plant response rating (rape; [2]): 3
- Plant response rating, Rape (rape; [3]): 3
- Rape plant response rating (rape; [4]): 0
- Rape plant response rating (rape; [5]): 0
- Rape plant response rating (0 to 10 scale) (rape; Preemergence, Rate 250 g/ha): 6
- Rape plant response rating (rape; [6]): 9
- Soybean plant response rating (soybean; [1]): 2
- Soybean plant response rating (soybean; [2]): 2
- Plant response rating, Soybean (soybean; [3]): 3
- Soybean plant response rating (soybean; [4]): 0
- Soybean plant response rating (soybean; [5]): 0
- Soybean plant response rating (0 to 10 scale) (soybean; Preemergence, Rate 250 g/ha): 0
- Soybean plant response rating (soybean; [6]): 0
- Plant response rating, Soybean (soybean; [7]): 3
- Sugarbeets plant response rating (sugar beet; [1]): 0
- Sugarbeets plant response rating (sugar beet; [2]): 0
- Plant response rating, Sugarbeets (sugar beet; [3]): 5
- Sugarbeets plant response rating (sugar beet; [4]): 0
- Sugarbeets plant response rating (sugar beet; [5]): 0
- Sugarbeets plant response rating (0 to 10 scale) (sugar beet; Preemergence, Rate 250 g/ha): 5
- Sugarbeets plant response rating (sugar beet; [6]): 8
- Plant response rating, Sugarbeets (sugar beet; [7]): 2
- Wild oats plant response rating (wild oat; [1]): 0
- Wild oats plant response rating (wild oat; [2]): 2
- Plant response rating, Wild oats (wild oat; [3]): 3
- Wild oats plant response rating (wild oat; [4]): 0
- Wild oats plant response rating (wild oat; [5]): 0
- Wild oats plant response rating (0 to 10 scale) (wild oat; Preemergence, Rate 250 g/ha): 2
- Wild oats plant response rating (wild oat; [6]): 8
- Plant response rating, Wild oats (wild oat; [7]): 4
- Nutsedge plant response rating (purple nutsedge; [1]): 0
- Nutsedge plant response rating (purple nutsedge; [2]): 0
- Plant response rating, Nutsedge (purple nutsedge; [3]): 2
- Nutsedge plant response rating (purple nutsedge; [4]): 0
- Nutsedge plant response rating (purple nutsedge; [5]): 0
- Nutsedge plant response rating (0 to 10 scale) (purple nutsedge; Preemergence, Rate 250 g/ha): 0
- Nutsedge plant response rating (purple nutsedge; [6]): 6
- Plant response rating, Nutsedge (purple nutsedge; [7]): 0
- Plant response rating, Rice (0 to 10 scale, 0 is no effect, 10 is complete control) (rice; [8]): 0
- Rice plant response rating (0 to 10 scale, 0 is no effect, 10 is complete control) (rice; [9]): 0
- Rice plant response rating (rice; [10]): 0
- Rice plant response rating (rice; [11]): 0
- Plant response rating, S. Flatsedge (0 to 10 scale, 0 is no effect, 10 is complete control) (smallflower flatsedge; [8]): 0
- S. Flatsedge plant response rating (0 to 10 scale, 0 is no effect, 10 is complete control) (smallflower flatsedge; [9]): 0
- S. Flatsedge plant response rating (smallflower flatsedge; [10]): 0
- S. Flatsedge plant response rating (smallflower flatsedge; [11]): 0
- Plant response rating, Ducksalad (0 to 10 scale, 0 is no effect, 10 is complete control) (duck salad; [8]): 0
- Ducksalad plant response rating (0 to 10 scale, 0 is no effect, 10 is complete control) (duck salad; [9]): 0
- Ducksalad plant response rating (duck salad; [10]): 0
- Ducksalad plant response rating (duck salad; [11]): 0
- Plant response rating, Barnyardgrass (0 to 10 scale, 0 is no effect, 10 is complete control) (bamyardgrass; [8]): 0
- Barnyardgrass plant response rating (0 to 10 scale, 0 is no effect, 10 is complete control) (bamyardgrass; [9]): 0
- Barnyardgrass plant response rating (bamyardgrass; [10]): 0
- Barnyardgrass plant response rating (bamyardgrass; [11]): 0
